{
  "source": "ChEMBL document CHEMBL1128155",
  "about": "“Synthesis and structure-activity relationships of 2-(R) and (S) pyrrolidine-modified analogs of the cholinergic channel activator, ABT-418” (Bioorg Med Chem Lett, 1995)",
  "experiment": "Displacement of [3H](-)-cytisine from rat brain nicotinic acetylcholine receptors (nAChR)",
  "note": "“And” between values parts separate entries of the source, which are not always exact repeats. Equal entries are not always repeated.",
  "data": [
    {"smiles": "Cc1cc([C@H]2CCCN2C)on1", "values": [
      {"measurement": "Ki", "value": 7.4, "unit": "nM"}
    ]},
    {"smiles": "Cc1cc([C@@H]2C[C@@H](CO)CN2C)on1", "values": [
      {"measurement": "Ki", "value": 6650, "unit": "nM"}
    ]},
    {"smiles": "Cc1cc([C@@H]2C[C@H](CO)CN2C)on1", "note": "(single isomer, unassigned)", "values": [
      {"measurement": "Ki", "value": 8140, "unit": "nM"}
    ]},
    {"smiles": "Cc1cc([C@@H]2C[C@@H](C)CN2C)on1", "values": [
      {"measurement": "Ki", "value": 19, "unit": "nM"}
    ]},
    {"smiles": "Cc1cc([C@@H]2CCCN2C)on1", "note": "[ABT-418]", "values": [
      {"measurement": "Ki", "value": 3, "unit": "nM"}
    ]},
    {"smiles": "Cc1cc([C@@H]2C[C@H](CF)CN2C)on1", "values": [
      {"measurement": "Ki", "value": 1680, "unit": "nM"}
    ]},
    {"smiles": "Cc1cc([C@H]2C[C@@H](CO)CN2C)on1", "values": [
      {"measurement": "Ki", "value": 10900, "unit": "nM"}
    ]},
    {"smiles": "Cc1cc([C@H]2CC[C@H](C)N2C)on1", "values": [
      {"measurement": "Ki", "value": "71 nM and 166 nM"}
    ]},
    {"smiles": "Cc1cc([C@H]2C[C@H](CF)CN2C)on1", "values": [
      {"measurement": "Ki", "value": 16900, "unit": "nM"}
    ]},
    {"smiles": "Cc1cc([C@@H]2C[C@@H](CF)CN2C)on1", "values": [
      {"measurement": "Ki", "value": 155, "unit": "nM"}
    ]},
    {"smiles": "Cc1cc([C@H]2C[C@H](C)CN2C)on1", "values": [
      {"measurement": "Ki", "value": 946, "unit": "nM"}
    ]},
    {"smiles": "Cc1cc([C@H]2C[C@H](CO)CN2C)on1", "values": [
      {"measurement": "Ki", "value": 6040, "unit": "nM"}
    ]}
  ]
}
